According to patent publication US11708348B2, “Protease inhibitors for treatment of coronavirus infections” (The Scripps Research Institute, priority 2021, dated 2023):

Tested on: SARS-CoV-2 strain USA-WA1/2020
Assay: microbe, parasite or virus in culture
Assay type: cell-based
Conditions: Severe acute respiratory syndrome coronavirus 2, HeLa-ACE2, 24 h, HeLa-ACE2 cells, SARS-CoV-2 infection, 24 h; cells given as a bound; read-out: EC50, uM (Hela)

Row | Compound | EC50
1 | CC(C)C[C@H](NC(=O)C(=O)Nc1ccccc1F)C(=O)N[C@@H](C[C@@H]1CCNC1=O)C(=O)COC(C(F)F)C(F)F [Compound 175, N1-(2-fluorophenyl)-N2-((S)-4-methyl-1-oxo-1-(((S)-3-oxo-1-((S)-2-oxopyrrolidin-3-yl)-4-((1,1,3,3-tetrafluoropropan-2-yl)oxy)butan-2-yl)amino)pentan-2-yl)oxalamide] | > 1 µM

Same assay, conditions: Severe acute respiratory syndrome coronavirus 2, HeLa-ACE2, 24 h, HeLa-ACE2 cells, SARS-CoV-2 infection, 24 h; class symbols; read-out: EC50, uM (Hela)

Row | Compound | EC50
2 | COc1cccc2[nH]c(C(=O)N[C@@H](CCCc3ccccc3)C(=O)N[C@@H](C[C@@H]3CCNC3=O)C(=O)COC(F)(F)F)cc12 [Compound 233, 4-methoxy-N-((S)-1-oxo-1-(((S)-3-oxo-1-((S)-2-oxopyrrolidin-3-yl)-4-(trifluoromethoxy)butan-2-yl)amino)-5-phenylpentan-2-yl)-1H-indole-2-carboxamide] | 0.05 to 0.2 µM
3 | O=C(Nc1ccccc1Cl)C(=O)N[C@@H](CC1CCC(F)(F)CC1)C(=O)N[C@@H](C[C@@H]1CCNC1=O)C(=O)COc1c(F)c(F)cc(F)c1F [Compound 88, N1-(2-chlorophenyl)-N2-((S)-3-(4,4-difluorocyclohexyl)-1-oxo-1-(((S)-3-oxo-l-((S)-2-oxopyrrolidin-3-yl)-4-(2,3,5,6-tetrafluorophenoxy)butan-2-yl)amino)propan-2-yl)oxalamide] | 0.05 to 0.2 µM
4 | CC(C)(C)[C@@H](O)C(=O)N1CC2(CC2)C[C@H]1C(=O)N[C@@H](C[C@@H]1CCNC1=O)C(=O)COC(F)(F)F [Compound 342, (S)-5-((R)-2-hydroxy-3,3-dimethylbutanoyl)-N-((S)-3-oxo-1-((S)-2-oxopyrrolidin-3-yl)-4-(trifluoromethoxy)butan-2-yl)-5-azaspiro[2.4]heptane-6-carboxamide] | 0.05 to 0.2 µM
5 | CC(C)C[C@H](NC(=O)/C=C/c1ccccc1F)C(=O)N[C@@H](C[C@@H]1CCNC1=O)C(=O)COc1c(F)c(F)cc(F)c1F [Compound 60, (S)-2-((E)-3-(2-fluorophenyl)acrylamido)-4-methyl-N-((S)-3-oxo-1-((S)-2-oxopyrrolidin-3-yl)-4-(2,3,5,6-tetrafluorophenoxy)butan-2-yl)pentanamide] | 0.05 to 0.2 µM
6 | O=C(N[C@@H](CC1CC1)C(=O)N[C@@H](C[C@@H]1CCNC1=O)C(=O)COC(F)(F)F)c1nc2ccccc2o1 [Compound 201, N-((S)-3-cyclopropyl-1-oxo-1-(((S)-3-oxo-1-((S)-2-oxopyrrolidin-3-yl)-4-(trifluoromethoxy)butan-2-yl)amino)propan-2-yl)benzo[d]oxazole-2-carboxamide] | < 0.05 µM
7 | CC(C)C[C@H](NC(=O)C(=O)N1CCCc2ccccc21)C(=O)N[C@@H](CC1CCNC1=O)C(=O)COC(F)(F)F (stereo partly drawn) [Compound 196, (2S)-2-(2-(3,4-dihydroquinolin-1(2H)-yl)-2-oxoacetamido)-4-methyl-N-((2S)-3-oxo-1-(2-oxopyrrolidin-3-yl)-4-(trifluoromethoxy)butan-2-yl)pentanamide] | < 0.05 µM
8 | CC(C)C[C@H](NC(=O)C(=O)N[C@@H]1CCCc2ccccc21)C(=O)N[C@@H](C[C@@H]1CCNC1=O)C(=O)COc1c(F)c(F)cc(F)c1F [Compound 147, N1-((S)-4-methyl-1-oxo-1-(((S)-3-oxo-1-((S)-2-oxopyrrolidin-3-yl)-4-(2,3,5,6-tetrafluorophenoxy)butan-2-yl)amino)pentan-2-yl)-N2-((R)-1,2,3,4-tetrahydronaphthalen-1-yl)oxalamide] | 0.5 to 1 µM
9 | CC(C)C[C@H](NC(=O)C(=O)NC12CCC(F)(CC1)CC2)C(=O)N[C@@H](C[C@@H]1CCNC1=O)C(=O)COC(F)(F)F [Compound 251, N1-(4-fluorobicyclo-[2.2.2]octan-1-yl)-N2-((S)-4-methyl-1-oxo-1-(((S)-3-oxo-1-((S)-2-oxopyrrolidin-3-yl)-4-(trifluoromethoxy)butan-2-yl)amino)pentan-2-yl)oxalamide] | < 0.05 µM
10 | CC(C)(C)C[C@H](O)C(=O)N1CC2(CC2)C[C@H]1C(=O)N[C@@H](C[C@@H]1CCNC1=O)C(=O)COC(F)(F)F [Compound 349, (S)-5-((S)-2-hydroxy-4,4-dimethylpentanoyl)-N-((S)-3-oxo-1-((S)-2-oxopyrrolidin-3-yl)-4-(trifluoromethoxy)butan-2-yl)-5-azaspiro[2.4]heptane-6-carboxamide] | < 0.05 µM

Same assay, conditions: Severe acute respiratory syndrome coronavirus 2, HeLa-ACE2, 24 h, HeLa-ACE2 cells, SARS-CoV-2 infection, 24 h; read-out: EC50, uM (Hela)

Row | Compound | EC50
11 | CC(C)(C(=O)N1CC2(CC2)C[C@H]1C(=O)N[C@@H](C[C@@H]1CCNC1=O)C(=O)COC(F)(F)F)c1ccccc1 [Compound 619, (S)-5-(2-methyl-2-phenylpropanoyl)-N-((S)-3-oxo-1-((S)-2-oxopyrrolidin-3-yl)-4-(trifluoromethoxy)butan-2-yl)-5-azaspiro[2.4]heptane-6-carboxamide] | < 0.05 µM
12 | CC(C)(C)NC(=O)C(=O)N1C[C@@]2(C[C@H]1C(=O)N[C@@H](C[C@@H]1CCNC1=O)C(=O)COC(F)(F)F)CC2(F)F [Compound 518, (3R,6S)-5-(2-(tert-butylamino)-2-oxoacetyl)-1,1-difluoro-N-((S)-3-oxo-1-((S)-2-oxopyrrolidin-3-yl)-4-(trifluoromethoxy)butan-2-yl)-5-azaspiro[2.4]-heptane-6-carboxamide] | 0.05 to 0.2 µM
13 | CC1(C)[C@@H]2[C@@H](C(=O)N[C@@H](C[C@@H]3CCNC3=O)C(=O)COC(F)(F)F)N(C(=O)C(=O)NC34CC(F)(C3)C4)C[C@@H]21 [Compound 486, (1R,2S,5S)-3-(2-((3-fluorobicyclo[1.1.1]-pentan-1-yl)amino)-2-oxoacetyl)-6,6-dimethyl-N-((S)-3-oxo-1-((S)-2-oxopyrrolidin-3-yl)-4-(trifluoromethoxy)butan-2-yl)-3-azabicyclo[3.1.0]-hexane-2-carboxamide] | 0.05 to 0.2 µM
14 | CC(C)C[C@@H](O)C(=O)N1C[C@H]2CC[C@H](C2)[C@H]1C(=O)N[C@@H](C[C@@H]1CCNC1=O)C(=O)COC(F)(F)F [Compound 638, (1R,2S,5S)-3-((R)-2-hydroxy-4-methylpentanoyl)-N-((S)-3-oxo-1-((S)-2-oxopyrrolidin-3-yl)-4-(trifluoromethoxy)butan-2-yl)-3-azabicyclo[3.2.1]octane-2-carboxamide] | 0.05 to 0.2 µM
15 | Cn1ccc(C(=O)N2C[C@@H]3CCC[C@@H]3[C@H]2C(=O)N[C@@H](C[C@@H]2CCNC2=O)C(=O)COC(F)(F)F)n1 [Compound 533, (1S,3aR,6aS)-2-(1-methyl-1H-pyrazole-3-carbonyl)-N-((S)-3-oxo-1-((S)-2-oxopyrrolidin-3-yl)-4-(trifluoromethoxy)butan-2-yl)octahydrocyclo-penta[c]pyrrole-1-carboxamide] | 0.5 to 1 µM
16 | CC(C)(C(=O)N1CC2(CC2)C[C@H]1C(=O)N[C@@H](C[C@@H]1CCNC1=O)C(=O)COC(F)(F)F)c1cccc(C(F)(F)F)c1 [Compound 456, (S)-5-(2-methyl-2-(3-(trifluoromethyl)-phenyl)propanoyl)-N-((S)-3-oxo-1-((S)-2-oxopyrrolidin-3-yl)-4-(trifluoromethoxy)butan-2-yl)-5-azaspiro[2.4]heptane-6-carboxamide] | < 0.05 µM
17 | CC(C)C[C@@H](O)C(=O)N1C[C@H](c2ccccc2)C[C@H]1C(=O)N[C@@H](C[C@@H]1CCNC1=O)C(=O)COC(F)(F)F [Compound 761, (2S,4S)-1-((R)-2-hydroxy-4-methylpentanoyl)-N-((S)-3-oxo-1-((S)-2-oxopyrrolidin-3-yl)-4-(trifluoromethoxy)butan-2-yl)-4-phenylpyrrolidine-2-carboxamide] | < 0.05 µM
18 | O=C1NCC[C@H]1C[C@H](NC(=O)[C@@H]1CC2(CC2)CN1C(=O)C1(O)CCCC1)C(=O)COC(F)(F)F [Compound 423, (S)-5-(l-hydroxycyclopentane-1-carbonyl)-N-((S)-3-oxo-1-((S)-2-oxopyrrolidin-3-yl)-4-(trifluoromethoxy)butan-2-yl)-5-azaspiro[2.4]heptane-6-carboxamide] | 0.05 to 0.2 µM
19 | CC(C)(C)NC(=O)C(=O)N1CC2(CCCCC2)CC1C(=O)N[C@@H](C[C@@H]1CCNC1=O)C(=O)COC(F)(F)F (stereo partly drawn) [Compound 531, 2-(2-(tert-butylamino)-2-oxoacetyl)-N-((S)-3-oxo-1-((S)-2-oxopyrrolidin-3-yl)-4-(trifluoromethoxy)butan-2-yl)-2-azaspiro[4.5]decane-3-carboxamide] | < 0.05 µM
20 | CC(C)C[C@@H](O)C(=O)N1CCC(C)(C)C[C@H]1C(=O)N[C@@H](C[C@@H]1CCNC1=O)C(=O)COC(F)(F)F [Compound 641, (S)-1-((R)-2-hydroxy-4-methylpentanoyl)-4,4-dimethyl-N-((S)-3-oxo-1-((S)-2-oxopyrrolidin-3-yl)-4-(trifluoromethoxy)butan-2-yl)piperidine-2-carboxamide] | < 0.05 µM
21 | [2H]C([2H])([2H])C([2H])(C([2H])([2H])[2H])C([2H])([2H])C(=O)N1CC2(CC2)C[C@H]1C(=O)N[C@@H](C[C@@H]1CCNC1=O)C(=O)COC(F)(F)F [Compound 737, (S)-5-(3-(methyl-d3)butanoyl-2,2,3,4,4,4-d6)-N-((S)-3-oxo-1-((S)-2-oxopyrrolidin-3-yl)-4-(trifluoromethoxy)butan-2-yl)-5-azaspiro[2.4]heptane-6-carboxamide] | < 0.05 µM

Same assay, conditions: Severe acute respiratory syndrome coronavirus 2, HeLa-ACE2, 24 h; read-out: EC50, uM (Hela)

Row | Compound | EC50
22 | CC(C)(C)[C@H](NC(=O)C(F)(F)F)C(=O)N1C[C@@H]2CCC[C@@H]2[C@H]1C(=O)N[C@@H](C[C@@H]1CCNC1=O)C(=O)COC(F)(F)F [Compound 266, (1S,3aR,6aS)-2-((S)-3,3-dimethyl-2-(2,2,2-trifluoroacetamido)-butanoyl)-N-((S)-3-oxo-1-((S)-2-oxopyrrolidin-3-yl)-4-(trifluoromethoxy)butan-2-yl)octahydrocyclo-penta[c]pyrrole-1-carboxamide] | < 0.05 µM
23 | CC(C)(C)[C@H](NC(=O)C(F)(F)F)C(=O)N1CC2(CC2)C[C@H]1C(=O)N[C@@H](C[C@@H]1CCNC1=O)C(=O)COC(F)(F)F [Compound 441, (S)-5-((S)-3,3-dimethyl-2-(2,2,2-trifluoroacetamido)butanoyl)-N—((S)-3-oxo-1-((S)-2-oxopyrrolidin-3-yl)-4-(trifluoromethoxy)butan-2-yl)-5-azaspiro[2.4]heptane-6-carboxamide] | < 0.05 µM
